Data from patent publication US20130165368A1, “ANTIMICROBIAL COMPOUNDS” (priority 2010, published 2013).
Values after ≈ are worked out from the molar mass of the structure shown. Where two headings read alike, the source gives them in different places.

How the values were obtained:
Format in all cases: cell-based
Candida albicans = assay: MIC agar dilution, micro-organism 19 (90028); conditions: Candida albicans 90028
In short: (§1)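 Agar dilution in Isosensitest/CCEY agar with egg yolk and lysed horse blood; compounds as aqueous emulsions (myristyl and lauryl alcohol with 1-methyl-2-pyrrolidone and Tween 20). 1 µL spots of 1/15-diluted 0.5 McFarland suspensions, 37 °C aerobic, read at 22 and 48 h; MIC (mmol/L) is lowest concentration giving <10 colonies.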

Escherichia coli = assay: MIC agar dilution, micro-organism 1 (10418); conditions: Escherichia coli 10418
In short: as §1

Listeria monocytogenes = assay: MIC agar dilution, micro-organism 15 (11994); conditions: Listeria monocytogenes 11994
In short: as §1

Enterococcus faecium = assay: MIC agar dilution, micro-organism 16 (7171); conditions: Enterococcus faecium 7171
In short: as §1

[1] = test system: Enterococcus faecium (VRE) NCTC 12952; assay: MIC agar dilution, VRE strain 30
Experimental: (§2) Molar equivalent concentrations were used to allow comparison between compounds of differing molecular mass. Due to weighing difficulties, any compound in solid form was melted in a water bath prior to dilution. To make ten-times strength concentrations, which takes into account agar dilution, 0.0352 mmol of each compound was weighed into plastic universal bottles and 4 mL of sterile distilled water (SDW) was added. To produce a homogenous emulsion the universals were vortexed; once achieved the emulsions were serial diluted by adding 2 mL to 2 mL of SDW.
(§3) For every 100 mL of Isosensitest agar (IST) (CM0471; Oxoid, Basingstoke, England), 3.1 g of the IST powder was added to 100 mL SDW (as per manufacturer's instructions) and sterilised for 15 minutes at 121° C. Once sterilised, the molten agar was cooled to 50° C. in a water-bath. Subsequently 4.8 g of CCEY powder (BC2160; Bioconnections, Wetherby, England), also known as Brazier's medium, was added to 100 mL SDW for every 100 mL of agar needed. This was then sterilised for 15 minutes at 121° C. Once sterilised the molten agar was cooled to 50° C. in a water-bath and 4 mL of egg-yolk emulsion (S2073; TCS Biosciences Ltd, Buckingham, United Kingdom) and 1 mL of lysed defibrinated horse blood (HB035; TCS Biosciences Ltd, Buckingham, United Kingdom) were also added for every 100 mL needed. Horse blood lysis is achieved by dilution to half concentration with SDW; when fully lysed the mixture will turn dark red in colour.
(§4) 18 mL agar was added to each universal and then poured into sterile Petri dishes. This step creates a 1/10 dilution resulting in agar plates of the required strength. Control plates for each set of strains were created by adding 18 mL of agar to 2 mL of SDW.
(§5) Suspensions of each bacterial species were prepared with a density equal to that of a 0.5 McFarland standard using a densitometer. All suspensions were made using sterile distilled water and fresh 18-20 hour cultures. As a 0.5 McFarland standard contains 1.5×10^8 CFU/mL and the multipoint inoculators applies 1 μL spots of liquid, each bacterial suspension was diluted 1/15 (20 μL suspension to 280 μL sterile distilled water).
(§6) Bacterial suspensions were prepared from fresh 18-24 hour cultures as previously described. 1 μL of each strain was inoculated onto all 100 agar plates containing a different chemical concentration and the 2 control plates. This was done using a multipoint inoculator which inoculates 20 strains per plate. All plates were incubated for 22 hours at 37° C. in aerobic conditions.
(§7) Each plate was examined for bacterial growth after 22 and 48 hours, with each being incubated in between examinations. A positive result was recorded as growth of ≧10 colonies. A negative result was recorded as growth of <10 colonies as this is equivalent to 99.9% inhibition. The lowest concentration of chemical that inhibited growth was recorded as the MIC. The results are recorded in Table IV below, where the numbers are quoted in mmol/L.
(§8) Given the positive performance of the ethoxylates of lauryl alcohol in reducing the MIC for a number of the micro-organisms tested, further MIC testing of Laureth-1 [C12E1] through to Laureth-8 [C12E8] was conducted on each of the following: • 10 strains of vancomycin-resistant enterococci (VRE)—listed in Table V below; and • 20 strains of methicillin-resistant Staphylococcus aureus (MRSA)—listed in Table VI.
(§9) The alkanol, alkanol derivatives, agar plates, and inocula were all prepared in the same way as described above.
(§10) The plates were examined in the same manner as described above and the results are recorded in Table VII below, where the numbers are quoted in mmol/L.

[2] = test system: Enterococcus casseliflavus (VRE) Clin waste; assay: MIC agar dilution, VRE strain 23
Experimental: as §2, §3, §4, §5, §6, §7, §8, §9, §10

[3] = test system: Enterococcus faecium (VRE) 255693 N. Tyneside; assay: MIC agar dilution, VRE strain 22
Experimental: as §2, §3, §4, §5, §6, §7, §8, §9, §10

[4] = test system: Enterococcus faecalis (VRE) MB 726; assay: MIC agar dilution, VRE strain 28
Experimental: as §2, §3, §4, §5, §6, §7, §8, §9, §10

MRSA FIN 54511 (E6) = assay: MIC agar dilution, MRSA strain 32; conditions: Staphylococcus aureus
Experimental: as §2, §3, §4, §5, §6, §7, §8, §9, §10

MRSA FIN 54518 (E7) = assay: MIC agar dilution, MRSA strain 31; conditions: Staphylococcus aureus
Experimental: as §2, §3, §4, §5, §6, §7, §8, §9, §10

[5] = test system: Enterococcus faecium (VRE) 12185 Clin waste; assay: MIC agar dilution, VRE strain 24
Experimental: as §2, §3, §4, §5, §6, §7, §8, §9, §10

[6] = test system: Enterococcus faecalis (VRE) PHLS URINE 2000; assay: MIC agar dilution, VRE strain 21
Experimental: as §2, §3, §4, §5, §6, §7, §8, §9, §10

MRSA EMRSA 15 19972/98 = assay: MIC agar dilution, MRSA strain 39; conditions: Staphylococcus aureus
Experimental: as §2, §3, §4, §5, §6, §7, §8, §9, §10

Row | Compound | MIC (Candida albicans; 22 hrs, read-out: MIC) [µM] | MIC (Candida albicans; 48 hrs, read-out: MIC) [µM] | MIC (Escherichia coli; 22 hrs, read-out: MIC) [µM] | MIC (Escherichia coli; 48 hrs, read-out: MIC) [µM] | MIC (Listeria monocytogenes; 22 hrs, read-out: MIC) [µM] | MIC (Listeria monocytogenes; 48 hrs, read-out: MIC) [µM] | MIC (Enterococcus faecium; 22 hrs, read-out: MIC) [µM] | MIC (Enterococcus faecium; 48 hrs, read-out: MIC) [µM] | MIC ([1]; 22 hrs) [µM] | MIC ([1]; 48 hrs) [µM] | MIC ([2]; 22 hrs) [µM] | MIC ([2]; 48 hrs) [µM] | MIC ([3]; 22 hrs) [µM] | MIC ([3]; 48 hrs) [µM] | MIC ([4]; 22 hrs) [µM] | MIC ([4]; 48 hrs) [µM] | MIC (MRSA FIN 54511 (E6); 22 hrs) [µM] | MIC (MRSA FIN 54511 (E6); 48 hrs) [µM] | MIC (MRSA FIN 54518 (E7); 22 hrs) [µM] | MIC (MRSA FIN 54518 (E7); 48 hrs) [µM] | also measured
1 | CCCCCCCCCCCCCCCCO [C0, 1-Hexadecanol, reference compound] | > 880 | > 880 | > 880 | > 880 | > 880 | > 880 | > 880 | > 880 | – | – | – | – | – | – | – | – | – | – | – | – | –
2 | CCCCCCCCCCCCCOCCOCCOCCOCCOCCOCCO [C13E6, polyoxyethylene (6) tridecyl alcohol] | – | – | – | – | – | – | – | – | – | – | – | – | – | – | – | – | – | – | – | – | MIC (Candida albicans; 22 hrs): >880 µM; MIC (Candida albicans; 48 hrs): >880 µM; MIC (Escherichia coli; 22 hrs): >880 µM; MIC (Escherichia coli; 48 hrs): >880 µM; MIC (Listeria monocytogenes; 22 hrs): >880 µM; MIC (Listeria monocytogenes; 48 hrs): >880 µM; MIC (Enterococcus faecium; 22 hrs): >880 µM; MIC (Enterococcus faecium; 48 hrs): >880 µM
3 | CCCCCCCCCCCCOCCO [L1, Ethylene Glycol Monododecyl Ether] | 440 (≈ 101 µg/mL) | 440 (≈ 101 µg/mL) | 220 (≈ 50.7 µg/mL) | 220 (≈ 50.7 µg/mL) | 440 (≈ 101 µg/mL) | 880 (≈ 203 µg/mL) | > 880 | > 880 | 220 (≈ 50.7 µg/mL) | 220 (≈ 50.7 µg/mL) | 220 (≈ 50.7 µg/mL) | 220 (≈ 50.7 µg/mL) | 440 (≈ 101 µg/mL) | 440 (≈ 101 µg/mL) | 440 (≈ 101 µg/mL) | 440 (≈ 101 µg/mL) | 220 (≈ 50.7 µg/mL) | 220 (≈ 50.7 µg/mL) | 220 (≈ 50.7 µg/mL) | 440 (≈ 101 µg/mL) | MIC ([5]; 22 hrs): 880 µM (≈ 203 µg/mL); MIC ([5]; 48 hrs): 880 µM (≈ 203 µg/mL); MIC ([6]; 22 hrs): 220 µM (≈ 50.7 µg/mL); MIC ([6]; 48 hrs): 220 µM (≈ 50.7 µg/mL); MIC (MRSA EMRSA 15 19972/98; 22 hrs): 220 µM (≈ 50.7 µg/mL); MIC (MRSA EMRSA 15 19972/98; 48 hrs): 220 µM (≈ 50.7 µg/mL)
4 | CCCCCCCCCCCCOCCOCCO [L2, Diethylene Glycol Monododecyl Ether] | 220 (≈ 60.4 µg/mL) | 220 (≈ 60.4 µg/mL) | > 880 | > 880 | 220 (≈ 60.4 µg/mL) | 220 (≈ 60.4 µg/mL) | > 880 | > 880 | 440 (≈ 121 µg/mL) | 440 (≈ 121 µg/mL) | 220 (≈ 60.4 µg/mL) | 220 (≈ 60.4 µg/mL) | 440 (≈ 121 µg/mL) | 440 (≈ 121 µg/mL) | 220 (≈ 60.4 µg/mL) | 220 (≈ 60.4 µg/mL) | 110 (≈ 30.2 µg/mL) | 110 (≈ 30.2 µg/mL) | 220 (≈ 60.4 µg/mL) | 220 (≈ 60.4 µg/mL) | MIC ([5]; 22 hrs): > 880 µM; MIC ([5]; 48 hrs): > 880 µM; MIC ([6]; 22 hrs): 220 µM (≈ 60.4 µg/mL); MIC ([6]; 48 hrs): 220 µM (≈ 60.4 µg/mL); MIC (MRSA EMRSA 15 19972/98; 22 hrs): 110 µM (≈ 30.2 µg/mL); MIC (MRSA EMRSA 15 19972/98; 48 hrs): 110 µM (≈ 30.2 µg/mL)
